The values that follow come from patent US8664272B2, “Composition and methods for the treatment of myelodysplastic syndrome and acute myeloid leukemia” (Temple University—Of the Commonwealth System of Higher …, priority 2006, dated 2014).

In data set [1] the test system is HL-60 cells. Briefly: Cytotoxicity of drug combinations towards HL-60 cells (WST-1 assay, median-effect analysis). The class given is cell-based, human. Particulars: single agent, concentrations higher than 500 nM, 72 h.
Method: Human promyelocytic leukemia cell line HL-60 were obtained from American Type Culture Collection. The cells were maintained in RPMI 1640 medium supplemented with 10% FBS, penicillin, (50 U/mL), streptomycin, (50 μg/mL). Cell cultures were maintained at 37° C. in 5% CO2 humidified atmosphere. Cells were counted in a hemocytometer, using Trypan blue staining as an indicator of viability.
The test compound, or combination of compounds, was added in 50 μL volume into flat-bottom 96-well plates. Control cultures received the same amount of medium without the test compound. HL-60 cells (1×10^6 cells/mL) were suspended in growth medium and dispensed in 50 μL aliquots into the well containing the compound. The plates were incubated at 37° C. (5% CO2) for 72 h. Cytotoxicity was then determined using the WST-1 assay. In the WST-1 assay cell viability is determined by incubating the cells for a further period of 0.5 to 4 h in the presence of the tetrazolium salt 4-(3-(4-iodophenyl)-2-(4-nitrophenyl)-2H-5-tetrazolio]-1,3-benzene disulfonate. In the presence of viable cells, the compound is reduced by mitochondrial dehydrogenases to a fluorescent product. The absorbance was measured against a background control without cell, in a microtiter plate reader (Bio-Tek Instruments, Elx 800) at 450 nm with a reference wavelength of 630 nm. […]
The test system of data set [2] is HL-60 cell line. Particulars: cited from earlier work.
The test system of data set [3] is myelodysplastic syndrome patients. Particulars: cited from earlier work.
[4] abbreviates: subcutaneous 75 mg/m^2/day for 7 days every 4 weeks, phase 3.

Consider `COc1cc(OC)c(/C=C/S(=O)(=O)Cc2ccc(OC)c(NCC(=O)[O-])c2)c(OC)c1.[Na+]` [Compound A, (E)-2-(5-((2,4,6-trimethoxystyrylsulfonyl)methyl)-2-methoxyphenylamino)acetic acid sodium salt], for which the cell death entry in data set [1] is reported as “virtually complete cell death”.

As to `Nc1ncn([C@@H]2O[C@H](CO)[C@@H](O)[C@H]2O)c(=O)n1` [Azacitidine, 5-azacytidine], the apoptosis entry in data set [2] is listed as “induces apoptosis”. The significant side-effects entry in data set [3] (clinical trials) is “nausea, anemia, thrombocytopenia, vomiting, pyrexia, leukopenia, diarrhea, fatigue, injection site erythema, constipation, neutropenia, and ecchymosis”. Besides, in data set [3] (setting [4]), the patients responded completely is listed as 5%, the patients responded partially was 10% and the response rate is recorded as 15%.
